Legend:
Type in all cases: cell-based, human
telomerase (hTR) = test: Improved TRAP telomerase activity in hTR antisense transfected cells
Method: First, the extraction procedures in the conventional TRAP were not sufficient to completely lyse the cell nuclei and the extraction efficiency varied with the ratio between the volume of the extraction buffer and the volume of cells. […] For the preparation of cell and tissue extracts, cells and tissue were harvested, washed, and stored at −70° C. Cells were then lysed in a SDS-based lysis buffer (10 mM Tris.HCl, pH 7.5, 1 mM MgCl2, 1 mM EGTA, 0.1 mM phenylmethylsulfonyl fluoride, 5 mM β-mercaptoethanol, 0.1% CHAPS, and 10% glycerol), on ice for 10 min. To this mixture, three volumes of CHAPS-based buffer (10 mM Tris-HCl, pH 7.5, 1 mM MgCl2, 1 mM EGTA, 0.1 mM phenylmethylsulfonyl fluoride, 5 mM β-mercaptoethanol, 0.5% CHAPS, and 10% glycerol) were added and kept on ice for 5 min. SDS is a strong detergent which can completely lyse the cell including the nucleus. […] The protein concentration of the supernatant was determined using Bicinchoninic Acid Kit (Sigma, St Louis, Mo.). […] Samples with equal amounts of protein (1-2 μg) were analyzed by TRAP. In this assay, the enzyme activity is measured as the synthesis of repeating telomere hexamers (TTAGGG; SEQ ID NO: 10). […]

FaDu cells [1] = test: Cell growth of hTR antisense transfected cells; details: stably transfected FaDu cells
Text: Transfection procedures. Transfection of the antisense construct used an IPTG-inducible mammalian expression system, i.e., the LacSwitch II system (Stratagene), which consists of a recombinant vector (i.e., pOPRSVI) and an operator vector (i.e., pCMVLacI). The pOPRSVI vector contains both ampicillin and G418^r resistance genes which facilitate the selection of positive clones from E. Coli and eukaryotic cells. The 8 unique cloning sites of the vector facilitate bi-directional insertion of a cDNA to produce either sense or antisense transcripts. The Lac repressor vector (pCMVLacI) produces the Lac repressor protein, which binds to and inhibits the operator sequence in the pOPRSVI vector and thereby inhibits the expression of the inserted gene. IPTG decreases the binding affinity of the Lac repressor protein to the operator sequence and triggers transcription and expression of the inserted gene. The transfection procedures consisted of stable transfection of FaDu cells with first, the pCMVLacI vector, and then second, the pOPRSVI/MCS vector which contained an antisense or sense hTR fragment. Transfection was performed using Lipofectamine-mediated gene transfer. The selection of the clones expressing the pCMVLacI repressor construct was performed using […] of the antibiotic hygromycin. The selection of the clones expressing the pOPRSVI vector using G418. […]

FaDu cells [2] = test: TALA telomere length in hTR antisense transfected cells
[3] = system: telomerase activity of FaDu cells; test: TRAP telomerase activity in drug-treated cells; details: cisplatin treatment, 48 to 96 hr
Method: For the preparation of cell and tissue extracts, cells and tissue were harvested, washed, and stored at −70° C. Cells were then lysed in a SDS-based lysis buffer (10 mM Tris.HCl, pH 7.5, 1 mM MgCl2, 1 mM EGTA, 0.1 mM phenylmethylsulfonyl fluoride, 5 mM β-mercaptoethanol, 0.1% CHAPS, and 10% glycerol), on ice for 10 min. To this mixture, three volumes of CHAPS-based buffer (10 mM Tris-HCl, pH 7.5, 1 mM MgCl2, 1 mM EGTA, 0.1 mM phenylmethylsulfonyl fluoride, 5 mM β-mercaptoethanol, 0.5% CHAPS, and 10% glycerol) were added and kept on ice for 5 min. […] For the extraction of tissues, tissues were homogenized in SDS-based lysis buffer with a Kontes pellet pestle (Fisher, Pittsburgh, Pa.), mixed with three volumes of CHAPS-based buffer, and centrifuged were centrifuged at 8,000 g for 15 min at 4° C. The supernatant was kept at −20° C. The protein concentration of the supernatant was determined using Bicinchoninic Acid Kit (Sigma, St Louis, Mo.). The protein concentration was adjusted to 0.5 μg/μl with CHAPS-based buffer. Samples with equal amounts of protein (1-2 μg) were analyzed by TRAP. […] The TRAP reaction mixture contained 2-4 μl of protein extract, 20 mM Tris.HCl (pH 8.3), 1.5 mM MgCl2, 63 mM KCl, 0.005% Tween-20, 1 mM EGTA, 50 μM dNTPs, 0.1 μg of TS primer, 0.1 mg/ml bovine serum albumin. The mixture was incubated at 30° C. for 30 min, then at 90° C. for 2 min.
This was accomplished by using phenol/chloroform extraction of the cell lysate, as follows. One μg of tRNA and 0.1 ng internal control template were added to the reaction solution after primer extension. The total volume of the mixture was brought to 100 μl with water, mixed with an equal volume of buffer saturated phenol (Life Technology) and then centrifuged at 18,000 g for 3 min, at room temperature. The top aqueous layer (90 μl) was carefully transferred to a new tube and mixed with an equal volume of chloroform:isoamyl alcohol (24:1) solution and centrifuged at 18,000 g for 3 min, at room temperature. The top aqueous layer (80 μl) was again transferred to a new tube and the nucleotides were precipitated with 0.2 volume of 3 M sodium acetate (pH 5.3) and 3 volume of 100% ethanol at −70° C. for at least 2 hr. The mixture was centrifuged at 18,000 g for 15 min at 4° C. […]
The template for the internal standard was amplified by PCR and purified by spin columns (QIAquick PCR purification kit, Qiagen, Valencia, Calif.). The concentration was determined by a spectrophotometer.
PCR was performed on the GeneAmp PCR system 2400 (Perkin Elmer) and initiated by 1 cycle at 94° C. for 3 min, 50° C. for 4 min, and 68° C. for 2 min, then 25 rounds at 94° C. for 30 sec, 50° C. for 30 sec, and 68° C. for 90 sec, followed by 68° C. for 10 min. […] The gel was then dried and the amplification products were detected. […]

FaDu cells [4] = test: Cell detachment from the growth surface
Method: Upon drug treatment, the supernatant along with two subsequent Versene rinses, which contained the detached cells, were collected. […] These samples were centrifuged at 1500 rpm for 10 min and the resulting cell pellets were resuspended in 2 ml of culture media. The cell number in the detached and attached fractions were counted using a Coulter counter (Coulter Electronic, Inc., Hialeah, Fla.).
Treatment with the above agents was initiated after cells were allowed to attach to the growth surface in culture flasks. On the day of experiments, the culture medium was removed and replaced with drug-containing medium. […] For d4T, two concentrations, 20 μM and 40 μM were used.
Agent effect was measured in three ways, i.e., enumeration of the number of cells that remained attached in culture flask, enumeration of the number of cells that detached from the growth surface, and by measuring changes in apoptosis. […] The drug-induced detachment of cells from the growth surface was determined by counting the attached and detached cells.

Compound: CC(C)S[C@@H]1O[C@H](CO)[C@H](O)[C@H](O)[C@H]1O [+IPTG]
- telomerase activity (telomerase (hTR)): 98.9 % of control
- Doubling time (FaDu cells [1]): 23 h
- Terminal restriction fragment (FaDu cells [2]): 2.91 kb

Compound: N.N.[Cl][Pt][Cl] [cisplatin]
- telomerase activity [3]: 50 % of the baseline level

Compound: Cc1cn([C@H]2C=C[C@@H](CO)O2)c(=O)[nH]c1=O [d4T, 3′-deoxy-2′,3′-didehydrothymidine]
- detachment of cells from the growth surface (FaDu cells [4]; d4T 20 μM and 40 μM): < 8%
- effect of addition of d4T to paclitaxel on detached cell fraction (FaDu cells [4]; d4T 20 or 40 μM): significantly enhanced the detached cell fraction

Reference: US7662361B2, “Methods and compositions for modulating drug activity through telomere damage” (priority 1999, dated 2010)
